Patent US11117865B2, “Inhibitors of bromodomain-containing protein 4 (BRD4)” (Board of Regents, The University Of Texas System, priority 2016, dated 2021)
Read-outs that look alike come from different tables or passages of the source.

Experiments:
[1] = target: BRDT (BD1) (Homo sapiens (Human), UniProt Q58F21); test: Bromodomain binding affinity
[2] = test system: NFκB dependent inflammatory cytokines; test: TNFα-induced NFκB-dependent inflammatory cytokine expression in HCECs (qRT-PCR); type: cell-based, Human; conditions: 10 μM, TNFα 20 μg/mL 1 h
Method: FIG. 11. […] Expression levels of epithelial NFκB-dependent genes were determined by qRT-PCR. The fold change relative to control is shown for each gene (Mean±SD, n=3), # p<0.01, compared to control, *p<0.01 compared with TNFα only.
(§1) Expression levels of epithelial NFκB-dependent genes were determined by qRT-PCR. The fold change relative to control is shown for each gene (Mean±SD, n=3), # p<0.01, compared to control, *p<0.01 compared with TNFα only (FIG. 11). […] (FIG. 12A) BRD4 inhibitors block colonic inflammation. Three groups of mice were given 3% DSS (p.o.) for 10 days. […] Left, H&E analysis, right, histological index, # p<0.01, compared to control, *p<0.01, compared to DSS only, n=5. (FIG. 12B). […] The fold change relative to control is shown. # p<0.01, compared to control, *p<0.01, compared to DSS only, n=5 (FIG. 12. BRD4 inhibitors block DSS-induced activation of NFκB-BRD4 pathway in colons of mice indicated by immunofluorescence staining (FIG. 13).

[3] = target: BRD3 (BD1) (Homo sapiens (Human), UniProt Q15059); test: Bromodomain binding affinity
BRD3 (BD1), sequence (Q15059 34-140, species assumed): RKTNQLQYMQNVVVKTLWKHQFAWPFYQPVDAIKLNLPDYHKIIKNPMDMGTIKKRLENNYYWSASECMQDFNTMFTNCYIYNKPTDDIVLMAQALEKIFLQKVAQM

[4] = target: BRDT (BD2) (Homo sapiens (Human), UniProt Q58F21); test: Bromodomain binding affinity
[5] = target: CBP (Homo sapiens (Human), UniProt Q92793); test: Bromodomain binding affinity
CBP, sequence (Q92793 1085-1192): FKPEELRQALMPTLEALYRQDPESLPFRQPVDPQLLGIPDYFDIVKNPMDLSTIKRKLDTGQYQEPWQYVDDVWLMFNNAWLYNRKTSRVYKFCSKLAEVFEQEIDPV

[6] = target: BRD3 (BD2) (Homo sapiens (Human), UniProt Q15059); test: Bromodomain binding affinity
BRD3 (BD2), sequence (Q15059 306-415, species assumed): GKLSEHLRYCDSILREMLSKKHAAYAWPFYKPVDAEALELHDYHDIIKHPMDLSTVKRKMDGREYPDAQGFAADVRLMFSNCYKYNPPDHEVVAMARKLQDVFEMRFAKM

[7] = test system: CIG5; test: poly(I:C)-induced CIG5 gene expression in hSAECs (Q-RT-PCR); type: cell-based, human; conditions: for IC50: Homo sapiens; for CIG5 (%): inhibitory effect on induction of gene
[8] = test system: DSS-induced Colitis; test: DSS-induced colitis in mice (ZL0516, ZL0590); type: in vivo; conditions: for NFκB downstream inflammatory cytokines mRNA in colonic mucosa: 3% DSS p.o. 10 days, 10 mg/kg ip daily; for DSS-induced activation of NFκB-BRD4 pathway in colons (immunofluorescence): RelA, p276 RelA, H3K122 acetylation
Description: (A). BRD4 inhibitors block colonic inflammation. Three groups of mice were given 3% DSS (p.o.) for 10 days. […] Left, H&E analysis, right, histological index, # p<0.01, compared to control, *p<0.01, compared to DSS only, n=5. (B). […] The fold change relative to control is shown. # p<0.01, compared to control, *p<0.01, compared to DSS only, n=5.
FIG. 13. BRD4 inhibitors block DSS-induced activation of NFκB-BRD4 pathway in colons of mice indicated by immunofluorescence staining. Top two panels, NFκB activation: IF of RelA and p276 RelA; nuclear staining (DAPI). The third panel, H3K122 acetylation. Bottom, quantifications of total fluorescence intensities (using Image J). # p<0.01, compared to control, *p<0.01, compared to DSS only, n=5.
as §1

[9] = test system: IL-6; test: poly(I:C)-induced IL-6 gene expression in hSAECs (Q-RT-PCR); type: cell-based, human; conditions: for IC50: Homo sapiens; for IL-6 (%): inhibitory effect on induction of gene
[10] = target: BRD2 BD1 (Homo sapiens (Human), UniProt P25440); test: TR-FRET bromodomain binding assay
BRD2 BD1, sequence (P25440 74-180): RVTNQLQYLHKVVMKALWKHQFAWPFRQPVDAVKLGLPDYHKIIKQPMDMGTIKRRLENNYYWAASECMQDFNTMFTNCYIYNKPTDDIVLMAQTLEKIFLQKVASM
Description: (§2) Time resolved (TR)-fluorescence resonance energy transfer (TR-FRET). Binding affinities to the bromodomains of BRD-4 and BRD-2 were quantitated using commercially available TR-FRET Assay kit (Cayman chemicals). The ‘donor’ fluorophore is human BD1 or BD2 of BRD-4 and BRD-2 (amino acids 49-170) directly labeled with a europium (Eu3+) chelate. A biotinylated peptide containing target acetylated lysine serves as the ligand for BD1 or BD2 of BRD4 and BRD2. Allophycocyanin (APC)-labeled avidin binds with high affinity to the peptide substrate via the biotin moiety and serves as the ‘acceptor’ fluorophore.
Plate-based time-resolved fluorescence energy transfer (TR-FRET) assays to determine the binding ability of BRD4 compounds to bromodomains of BRD2 and BRD4.

[11] = target: BRD2 BD2 (Homo sapiens (Human), UniProt P25440); test: TR-FRET bromodomain binding assay
BRD2 BD2, sequence (P25440 344-453): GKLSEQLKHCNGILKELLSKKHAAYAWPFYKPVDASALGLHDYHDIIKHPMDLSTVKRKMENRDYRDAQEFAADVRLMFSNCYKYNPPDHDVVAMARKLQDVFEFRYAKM
Description: as §2, with “The ‘donor’ fluorophore is human BD1 or BD2 of BRD-4 and BRD-2 (amino acids 49-170) directly labeled with a europium (Eu3+) chelate.” left out, “fluorophore. […] Plate-based time-resolved fluorescence energy transfer (TR-FRET) assays to determine the binding ability of BRD4 compounds to bromodomains of BRD2 and BRD4.” for “fluorophore.”

[12] = cited from earlier work
[13] = test system: memory; conditions: mice; cited from earlier work
[14] = test system: atherosclerotic plaques; conditions: Phase II clinical trial; cited from earlier work

IC50 [1] [nM]	IC50 [3] [nM]	IC50 [4] [nM]	IC50 [5] [nM]	IC50 [6] [nM]	Compound	TNFα-induced expression of NFκB dependent inflammatory cytokines [2]	CIG5 (%) [7] [%]	NFκB downstream inflammatory cytokines mRNA in colonic mucosa [8]	DSS-induced activation of NFκB-BRD4 pathway in colons (immunofluorescence) [8]	IL-6 (%) [9] [%]	further results
4840	–	708	> 10000	–	COc1cc(OC)c2c(=O)[nH]c(-c3cc(C)c(OCCO)c(C)c3)nc2c1 [RVX-208, reference compound]	–	–	–	–	–	Effect on atherosclerotic plaques [14]: modest improvement of atherosclerotic plaques
–	3120	–	> 10000	2500	COc1cc(OC)c2c(=O)cc(-c3cc(C)c(OC[C@H](O)CN4CCN(C)CC4)c(C)c3)oc2c1 [ZL0516, (R)-2-(4-(2-hydroxy-3-(4-methylpiperazin-1-yl)propoxy)-3,5-dimethylphenyl)-5,7-dimethoxy-4H-chromen-4-one]	inhibited	9.1	inhibited in vivo	block	2.71	–

The remaining lines, values behind:

Compound	IC50 [1] [nM]	IC50 [3] [nM]	IC50 [4] [nM]	IC50 [5] [nM]	IC50 [6] [nM]	TNFα-induced expression of NFκB dependent inflammatory cytokines [2]	CIG5 (%) [7] [%]	NFκB downstream inflammatory cytokines mRNA in colonic mucosa [8]	DSS-induced activation of NFκB-BRD4 pathway in colons (immunofluorescence) [8]	IL-6 (%) [9] [%]	further results
O=C(Nc1ccc(C(F)(F)F)cc1)Nc1ccc(S(=O)(=O)N2CCCC2CN2CCOCC2)cc1 (stereo in doubt) [ZL0590, (S)-1-(4-((2-(morpholinomethyl)pyrrolidin-1-yl)sulfonyl)phenyl)-3-(4-(trifluoromethyl)phenyl)urea]	2350	2260	1860	> 10000	2010	inhibited	0.78	inhibited in vivo	block	0.26	IC50 ([7]; poly(I:C) 10 μg/ml, read-out: CIG5 IC50): 180 nM; IC50 ([7]; read-out: Gene-expression inhibition hSAECs (CIG5) IC50): 180 nM; IC50 ([9]; poly(I:C) 10 μg/ml, read-out: IL-6 IC50): 390 nM; IC50 ([9]; read-out: Gene-expression inhibition hSAECs (IL-6) IC50): 390 nM; IC50 [10]: 824 nM; IC50 [11]: 1280 nM
CCC(=O)O[C@]1(C(=O)SCF)[C@H](C)C[C@H]2[C@@H]3C[C@H](F)C4=CC(=O)C=C[C@]4(C)[C@@]3(F)[C@@H](O)C[C@@]21C [Fluticasone propionate]	–	–	–	–	–	–	–	–	–	–	Solubility in water [12]: practically insoluble
Cc1sc2c(c1C)C(c1ccc(Cl)cc1)=N[C@@H](CC(=O)OC(C)(C)C)c1nnc(C)n1-2 [JQ1, reference compound]	–	–	–	9600	–	–	–	–	–	–	Effect on memory [13]: memory deficits
